The values that follow are results of earlier work, collected in US20050042178A1, “Microparticles containing the CGRP-antagonist 1-[N2-[3,5-dibrom-N-[[4-(3,4-dihydro-2(1H)-oxoquinazoline-3-yl)-1-piperidinyl]carbonyl]-D-tyrosyl]-L-lysyl]-4-(4-pyridinyl)-piperazine, process for preparing and the use thereof as inhalation powder” (Boehringer Ingelheim International GmbH, priority 2003, published 2005).

For this series the following is noted: conventional formulations.

For the compound `NCCCC[C@H](NC(=O)[C@@H](Cc1cc(Br)c(O)c(Br)c1)NC(=O)N1CCC(N2Cc3ccccc3NC2=O)CC1)C(=O)N1CCN(c2ccncc2)CC1` [A, 1-[N^2-[3,5-dibromo-N-[[4-(3,4-dihydro-2(1H)-oxoquinazolin-3-yl)-1-piperidinyl]carbonyl]-D-tyrosyl]-L-lysyl]-4-(4-pyridinyl)-piperazine], the oral bioavailability result is given as “very limited”.
